# From patent US10954269B2, “Anti-inflammatory tripeptides” (Dr. August Wolff Gmbh & Co. KG Arzneimittel, priority 2013, dated 2021)
# How the values were obtained:
# Conditions in all cases: substance 10^−9M
# primary human T-cells = assay: Cytokine secretion on protein level in activated primary human T-cells (13-plex FACS / Luminex, supernatant); type: cell-based
# Method in brief: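 First, T-cells are isolated from healthy donors' blood. Next, they and HaCaT keratinocytes are activated for 48 h with PMA/Ionomycin or IFN-γ in the presence of tripeptides. Finally, secreted cytokines are quantified in supernatants by 13-plex FACS at 48 and 72 h.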
# primary murine T-cells = assay: Cytokine secretion on protein level in activated primary murine T-cells (13-plex FACS / Luminex, supernatant); type: cell-based, C57BL/6 mice
# Method in brief: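 T-cells from secondary lymphatic organs of naïve C57BL/6 mice, stimulated with PMA/Ionomycin or IFN-γ; supernatant cytokines measured by 13-plex FACS 48 h and 72 h after stimulation. In another run, PMA/Ionomycin-stimulated cells received compounds at 10^−7, 10^−9 and 10^−11 M, with IFN-γ, IL-17 and IL-10 measured by Luminex.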
# [1] = test system: human keratinocyte cell line (HaCaT); assay: Cytokine secretion on protein level in activated human keratinocyte cell line HaCaT (13-plex FACS / Luminex, supernatant); type: cell-based
# Method in brief: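 Stimulus: PMA/Ionomycin or IFN-γ, 48 h; cells: HaCaT or human peripheral-blood T-cells; tripeptide treatment; readout: supernatant cytokines via 13-plex FACS or Luminex, 48–72 h post-stimulation.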
# [2] = primary human T-cells stimulated with IFN-γ
# [3] = primary human T-cells stimulated with PBS
# [4] = primary human T-cells stimulated with PMA/Ionomycin
# [5] = primary murine T-cells stimulated with IFN-γ
# [6] = primary murine T-cells stimulated with PBS
# [7] = primary murine T-cells stimulated with PMA/Ionomycin
# [8] = HaCaT stimulated with PMA/Ionomycin
compound,measurement,setting,value
"C[C@@H]1C[C@H]2[C@@H]3CCC4=CC(=O)C=C[C@]4(C)[C@@]3(F)[C@@H](O)C[C@]2(C)[C@@]1(O)C(=O)CO [dexamethasone, reference compound]",IL-1 cytokine concentration,primary human T-cells; [2],0 pg/mL
same,IL-2 cytokine concentration,primary human T-cells; [2],0 pg/mL
same,IL-4 cytokine concentration,primary human T-cells; [2],0 pg/mL
same,IL-5 cytokine concentration,primary human T-cells; [2],0 pg/mL
same,IL-6 cytokine concentration,primary human T-cells; [2],56.47 pg/mL
same,IL-9 cytokine concentration,primary human T-cells; [2],0 pg/mL
same,IL-10 cytokine concentration,primary human T-cells; [2],0 pg/mL
same,IL-12 cytokine concentration,primary human T-cells; [2],0 pg/mL
same,IL-13 cytokine concentration,primary human T-cells; [2],0 pg/mL
same,IL-17 cytokine concentration,primary human T-cells; [2],0 pg/mL
same,IL-22 cytokine concentration,primary human T-cells; [2],0 pg/mL
same,TNF-α cytokine concentration,primary human T-cells; [2],0 pg/mL
same,IFN-γ cytokine concentration,primary human T-cells; [3],0 pg/mL
same,IL-1 cytokine concentration,primary human T-cells; [3],0 pg/mL
same,IL-2 cytokine concentration,primary human T-cells; [3],0 pg/mL
same,IL-4 cytokine concentration,primary human T-cells; [3],0 pg/mL
same,IL-5 cytokine concentration,primary human T-cells; [3],0 pg/mL
same,IL-6 cytokine concentration,primary human T-cells; [3],80.63 pg/mL
same,IL-9 cytokine concentration,primary human T-cells; [3],13.05 pg/mL
same,IL-10 cytokine concentration,primary human T-cells; [3],45.66 pg/mL
same,IL-12 cytokine concentration,primary human T-cells; [3],0 pg/mL
same,IL-13 cytokine concentration,primary human T-cells; [3],55.12 pg/mL
same,IL-17 cytokine concentration,primary human T-cells; [3],69.45 pg/mL
same,IL-22 cytokine concentration,primary human T-cells; [3],0 pg/mL
same,TNF-a cytokine concentration,primary human T-cells; [3],41.45 pg/mL
same,IFN-γ cytokine concentration,primary human T-cells; [4],888.61 pg/mL
same,IL-1 cytokine concentration,primary human T-cells; [4],448.69 pg/mL
same,IL-2 cytokine concentration,primary human T-cells; [4],2198.45 pg/mL
same,IL-4 cytokine concentration,primary human T-cells; [4],79.02 pg/mL
same,IL-5 cytokine concentration,primary human T-cells; [4],297.13 pg/mL
same,IL-6 cytokine concentration,primary human T-cells; [4],1078.6 pg/mL
same,IL-9 cytokine concentration,primary human T-cells; [4],392.74 pg/mL
same,IL-10 cytokine concentration,primary human T-cells; [4],799.85 pg/mL
same,IL-12 cytokine concentration,primary human T-cells; [4],0 pg/mL
same,IL-13 cytokine concentration,primary human T-cells; [4],1099.59 pg/mL
same,IL-17 cytokine concentration,primary human T-cells; [4],1134.18 pg/mL
same,IL-22 cytokine concentration,primary human T-cells; [4],0 pg/mL
same,TNF-a cytokine concentration,primary human T-cells; [4],3264.56 pg/mL
same,IL-1 cytokine concentration,primary murine T-cells; [5],64.89 pg/mL
same,IL-2 cytokine concentration,primary murine T-cells; [5],70.49 pg/mL
same,IL-4 cytokine concentration,primary murine T-cells; [5],61.11 pg/mL
same,IL-5 cytokine concentration,primary murine T-cells; [5],208.28 pg/mL
same,IL-6 cytokine concentration,primary murine T-cells; [5],108.76 pg/mL
same,IL-10 cytokine concentration,primary murine T-cells; [5],905.55 pg/mL
same,IL-13 cytokine concentration,primary murine T-cells; [5],0 pg/mL
same,IL-17 cytokine concentration,primary murine T-cells; [5],52.48 pg/mL
same,IL-21 cytokine concentration,primary murine T-cells; [5],0 pg/mL
same,IL-22 cytokine concentration,primary murine T-cells; [5],37.13 pg/mL
same,IL-27 cytokine concentration,primary murine T-cells; [5],21.29 pg/mL
same,TNF-α cytokine concentration,primary murine T-cells; [5],32.32 pg/mL
same,IFN-γ cytokine concentration,primary murine T-cells; [6],0 pg/mL
same,IL-1 cytokine concentration,primary murine T-cells; [6],50.19 pg/mL
same,IL-2 cytokine concentration,primary murine T-cells; [6],98.48 pg/mL
same,IL-4 cytokine concentration,primary murine T-cells; [6],64.23 pg/mL
same,IL-5 cytokine concentration,primary murine T-cells; [6],249.8 pg/mL
same,IL-6 cytokine concentration,primary murine T-cells; [6],88.47 pg/mL
same,IL-10 cytokine concentration,primary murine T-cells; [6],586.12 pg/mL
same,IL-13 cytokine concentration,primary murine T-cells; [6],0 pg/mL
same,IL-17 cytokine concentration,primary murine T-cells; [6],0 pg/mL
same,IL-21 cytokine concentration,primary murine T-cells; [6],0 pg/mL
same,IL-22 cytokine concentration,primary murine T-cells; [6],69.18 pg/mL
same,IL-27 cytokine concentration,primary murine T-cells; [6],84.69 pg/mL
same,TNF-α cytokine concentration,primary murine T-cells; [6],67.18 pg/mL
same,IFN-γ cytokine concentration,primary murine T-cells; [7],1777.98 pg/mL
same,IL-1 cytokine concentration,primary murine T-cells; [7],160.95 pg/mL
same,IL-2 cytokine concentration,primary murine T-cells; [7],97.41 pg/mL
same,IL-4 cytokine concentration,primary murine T-cells; [7],57.84 pg/mL
same,IL-5 cytokine concentration,primary murine T-cells; [7],198.45 pg/mL
same,IL-6 cytokine concentration,primary murine T-cells; [7],144.26 pg/mL
same,IL-10 cytokine concentration,primary murine T-cells; [7],899.74 pg/mL
same,IL-13 cytokine concentration,primary murine T-cells; [7],0 pg/mL
same,IL-17 cytokine concentration,primary murine T-cells; [7],76.12 pg/mL
same,IL-21 cytokine concentration,primary murine T-cells; [7],0 pg/mL
same,IL-22 cytokine concentration,primary murine T-cells; [7],97.01 pg/mL
same,IL-27 cytokine concentration,primary murine T-cells; [7],94.12 pg/mL
same,TNF-α cytokine concentration,primary murine T-cells; [7],36.25 pg/mL
same,IL-1 cytokine concentration,[1]; HaCaT stimulated with IFN-γ,0 pg/mL
same,IL-2 cytokine concentration,[1]; HaCaT stimulated with IFN-γ,0 pg/mL
same,IL-4 cytokine concentration,[1]; HaCaT stimulated with IFN-γ,39.78 pg/mL
same,IL-5 cytokine concentration,[1]; HaCaT stimulated with IFN-γ,0 pg/mL
same,IL-6 cytokine concentration,[1]; HaCaT stimulated with IFN-γ,204.99 pg/mL
same,IL-9 cytokine concentration,[1]; HaCaT stimulated with IFN-γ,0 pg/mL
same,IL-10 cytokine concentration,[1]; HaCaT stimulated with IFN-γ,0 pg/mL
same,IL-12 cytokine concentration,[1]; HaCaT stimulated with IFN-γ,0 pg/mL
same,IL-13 cytokine concentration,[1]; HaCaT stimulated with IFN-γ,0 pg/mL
same,IL-17 cytokine concentration,[1]; HaCaT stimulated with IFN-γ,69.14 pg/mL
same,IL-22 cytokine concentration,[1]; HaCaT stimulated with IFN-γ,0 pg/mL
same,TNF-α cytokine concentration,[1]; HaCaT stimulated with IFN-γ,0 pg/mL
same,IFN-γ cytokine concentration,[1]; HaCaT stimulated with PBS,12.98 pg/mL
same,IL-1 cytokine concentration,[1]; HaCaT stimulated with PBS,0 pg/mL
same,IL-2 cytokine concentration,[1]; HaCaT stimulated with PBS,0 pg/mL
same,IL-4 cytokine concentration,[1]; HaCaT stimulated with PBS,133.98 pg/mL
same,IL-5 cytokine concentration,[1]; HaCaT stimulated with PBS,0 pg/mL
same,IL-6 cytokine concentration,[1]; HaCaT stimulated with PBS,44.79 pg/mL
same,IL-9 cytokine concentration,[1]; HaCaT stimulated with PBS,0 pg/mL
same,IL-10 cytokine concentration,[1]; HaCaT stimulated with PBS,30.89 pg/mL
same,IL-12 cytokine concentration,[1]; HaCaT stimulated with PBS,0 pg/mL
same,IL-13 cytokine concentration,[1]; HaCaT stimulated with PBS,0 pg/mL
same,IL-17 cytokine concentration,[1]; HaCaT stimulated with PBS,0 pg/mL
same,IL-22 cytokine concentration,[1]; HaCaT stimulated with PBS,0 pg/mL
same,TNF-α cytokine concentration,[1]; HaCaT stimulated with PBS,0 pg/mL
same,IFN-γ cytokine concentration,[1]; [8],0 pg/mL
same,IL-1 cytokine concentration,[1]; [8],0 pg/mL
same,IL-2 cytokine concentration,[1]; [8],0 pg/mL
same,IL-4 cytokine concentration,[1]; [8],91.48 pg/mL
same,IL-5 cytokine concentration,[1]; [8],0 pg/mL
same,IL-6 cytokine concentration,[1]; [8],124.98 pg/mL
same,IL-9 cytokine concentration,[1]; [8],0 pg/mL
same,IL-10 cytokine concentration,[1]; [8],54.10 pg/mL
same,IL-12 cytokine concentration,[1]; [8],0 pg/mL
same,IL-13 cytokine concentration,[1]; [8],0 pg/mL
same,IL-17 cytokine concentration,[1]; [8],0 pg/mL
same,IL-22 cytokine concentration,[1]; [8],0 pg/mL
same,TNF-α cytokine concentration,[1]; [8],0 pg/mL
